For assay [1], the target named is T1, Transmembrane protease serine 6 (Homo sapiens, UniProt Q8IU80).
T1 sequence (Q8IU80 whole entry): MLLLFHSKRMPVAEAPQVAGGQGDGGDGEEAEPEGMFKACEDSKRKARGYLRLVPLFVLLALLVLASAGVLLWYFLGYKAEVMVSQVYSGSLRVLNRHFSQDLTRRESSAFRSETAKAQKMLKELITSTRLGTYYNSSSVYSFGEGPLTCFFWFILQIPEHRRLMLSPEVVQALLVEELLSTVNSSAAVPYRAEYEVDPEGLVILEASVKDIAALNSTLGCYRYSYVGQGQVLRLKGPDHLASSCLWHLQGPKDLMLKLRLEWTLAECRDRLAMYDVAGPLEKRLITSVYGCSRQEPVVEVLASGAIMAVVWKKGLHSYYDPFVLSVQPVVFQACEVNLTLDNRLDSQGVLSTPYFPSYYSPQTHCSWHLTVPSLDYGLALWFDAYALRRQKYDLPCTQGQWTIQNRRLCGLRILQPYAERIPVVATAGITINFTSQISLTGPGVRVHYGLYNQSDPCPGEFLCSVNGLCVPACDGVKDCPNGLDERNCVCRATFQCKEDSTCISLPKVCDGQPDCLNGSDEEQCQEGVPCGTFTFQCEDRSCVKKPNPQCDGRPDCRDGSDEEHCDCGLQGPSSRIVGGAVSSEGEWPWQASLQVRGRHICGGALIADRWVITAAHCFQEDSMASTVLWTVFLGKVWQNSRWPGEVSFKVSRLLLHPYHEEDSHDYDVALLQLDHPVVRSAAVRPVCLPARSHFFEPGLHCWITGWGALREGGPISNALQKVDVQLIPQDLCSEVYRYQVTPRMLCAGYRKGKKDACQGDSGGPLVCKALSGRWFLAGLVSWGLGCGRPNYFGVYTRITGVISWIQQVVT
The experiment in a line: Inhibition of matriptase-2 (unknown origin) expressed in HEK293 cells using ln-Ala-Arg-a-Arg-para-nitroanilide as substrate by UV-vis spectrophotometry. It is filed as cell-based.

Assay [2] concerns the target T2, Suppressor of tumorigenicity 14 protein (Homo sapiens, UniProt Q9Y5Y6).
T2 sequence (Q9Y5Y6 whole entry): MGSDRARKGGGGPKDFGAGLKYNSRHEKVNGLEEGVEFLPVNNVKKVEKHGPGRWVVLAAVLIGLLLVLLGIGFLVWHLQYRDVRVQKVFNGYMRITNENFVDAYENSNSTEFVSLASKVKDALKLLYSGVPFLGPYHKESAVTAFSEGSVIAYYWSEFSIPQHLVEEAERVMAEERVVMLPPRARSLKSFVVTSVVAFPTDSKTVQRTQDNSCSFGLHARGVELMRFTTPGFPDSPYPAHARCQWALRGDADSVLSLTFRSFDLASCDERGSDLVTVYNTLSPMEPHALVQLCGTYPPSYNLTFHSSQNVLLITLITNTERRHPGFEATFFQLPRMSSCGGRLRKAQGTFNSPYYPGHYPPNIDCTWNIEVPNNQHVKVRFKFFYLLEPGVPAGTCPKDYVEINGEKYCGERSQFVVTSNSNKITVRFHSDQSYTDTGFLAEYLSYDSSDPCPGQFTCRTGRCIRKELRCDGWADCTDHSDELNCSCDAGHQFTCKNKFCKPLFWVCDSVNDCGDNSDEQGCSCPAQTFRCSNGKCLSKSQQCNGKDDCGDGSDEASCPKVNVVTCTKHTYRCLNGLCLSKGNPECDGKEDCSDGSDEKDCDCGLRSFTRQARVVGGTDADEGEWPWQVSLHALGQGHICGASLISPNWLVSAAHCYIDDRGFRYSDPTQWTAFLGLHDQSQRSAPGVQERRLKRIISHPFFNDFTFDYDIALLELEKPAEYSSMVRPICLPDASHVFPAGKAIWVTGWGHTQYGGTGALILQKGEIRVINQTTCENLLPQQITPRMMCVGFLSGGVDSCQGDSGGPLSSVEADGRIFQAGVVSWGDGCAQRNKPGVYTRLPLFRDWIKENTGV
The assay is described as follows: Inhibition of matriptase (unknown origin) using MeSO2-D-Cha-Gly-Arg-pNA as substrate.

Another assay concerns the target Coagulation factor X (Homo sapiens, UniProt P00742). The experiment in a line: Inhibition of human factor 10a using CH3OCO-D-Cha-Gly-Arg-pNA as substrate.
The target of a further assay is Prothrombin (Bos taurus, UniProt P00735). The assay is described as follows: Inhibition of bovine thrombin using MeSO2-D-Cha-Gly-Arg-pNA as substrate.

Sequence of Coagulation factor X (P00742 41-179 limits assumed): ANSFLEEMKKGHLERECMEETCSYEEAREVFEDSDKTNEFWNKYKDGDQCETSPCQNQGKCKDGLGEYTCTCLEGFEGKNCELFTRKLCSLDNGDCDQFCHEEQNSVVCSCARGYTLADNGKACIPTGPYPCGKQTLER
Sequence of Coagulation factor X (P00742 235-488 limits assumed): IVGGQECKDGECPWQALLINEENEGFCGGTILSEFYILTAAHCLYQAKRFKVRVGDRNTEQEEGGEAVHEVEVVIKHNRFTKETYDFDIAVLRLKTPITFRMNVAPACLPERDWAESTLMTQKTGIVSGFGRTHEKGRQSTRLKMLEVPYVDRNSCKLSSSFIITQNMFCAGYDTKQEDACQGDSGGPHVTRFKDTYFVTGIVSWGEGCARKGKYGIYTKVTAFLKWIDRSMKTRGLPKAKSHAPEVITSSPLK

The Ki is the equilibrium dissociation constant of an inhibitor or competing ligand from its target. A lower Ki goes with a stronger hold on the target. On to `CNC(=O)CCCC1CCN(C(=O)[C@H](Cc2cccc(C(=N)N)c2)NS(=O)(=O)c2cccc(-c3ccc(F)cc3)c2)CC1`, for which the Ki is 4400 nM in assay [1], 120 nM in assay [2], 550 nM at Coagulation factor X and 1 nM on Prothrombin.
For the compound `N=C(N)c1cccc(C[C@H](NS(=O)(=O)c2cccc(NC(=O)CCN)c2)C(=O)N2CCC(NC(=O)NC3CCCCC3)CC2)c1`, the inhibition constant Ki in assay [1] was 790 nM; in assay [2] it was 8 nM; at Coagulation factor X, 1200 nM; on Prothrombin it was 35900 nM.
On to `N=C(N)c1cccc(C[C@H](NS(=O)(=O)c2cccc(NC(=O)CCN)c2)C(=O)N2CCC(NC(=O)Nc3ccccc3)CC2)c1`, for which the Ki is 1300 nM in assay [1], 14 nM in assay [2], 3410 nM on Coagulation factor X and 9250 nM at Prothrombin.
For `CNC(=O)CCCC1CCN(C(=O)[C@H](Cc2cccc(C(=N)N)c2)NS(=O)(=O)c2cccc(-c3ccc(Cl)c(Cl)c3)c2)CC1` the same measures were 1600 nM, 74 nM, 230 nM and 3 nM.
For `N=C(N)c1cccc(C[C@H](NS(=O)(=O)c2cccc(-c3ccc(Cl)cc3Cl)c2)C(=O)N2CCC(CCN)CC2)c1` the same measures were 110 nM, 2 nM, 50 nM and 20 nM.
Turning to `N=C(N)c1cccc(C[C@H](NS(=O)(=O)c2cccc(-c3ccc(F)cc3)c2)C(=O)N2CCC(CCN)CC2)c1`, the Ki turned out to be 3200 nM in assay [1], 33 nM in assay [2], 1120 nM at Coagulation factor X and 5 nM at Prothrombin.
For `CCNC(=O)NC1CCN(C(=O)[C@H](Cc2cccc(C(=N)N)c2)NS(=O)(=O)c2cccc(NC(=O)CCN)c2)CC1` the same measures were 2400 nM, 39 nM, 8890 nM and 15300 nM.
`N=C(N)c1cccc(C[C@H](NS(=O)(=O)c2cccc(NC(=O)CCN)c2)C(=O)N2CCC(NC(N)=O)CC2)c1`: the inhibition constant (Ki) in assay [1] was found to be 3900 nM; in assay [2], 35 nM; at Coagulation factor X it was 16900 nM; on Prothrombin, 9700 nM.
For `N=C(N)c1cccc(C[C@H](NS(=O)(=O)c2cccc(NC(=O)CCN)c2)C(=O)N2CCC(CCNC(=O)NC3CCCCC3)CC2)c1` the same measures were 1800 nM, 23 nM, 6450 nM and 470 nM.
On to `N=C(N)c1cccc(C[C@H](NS(=O)(=O)c2cccc(-c3ccc(Cl)c(Cl)c3)c2)C(=O)N2CCC(CCN)CC2)c1`, for which the inhibition constant Ki is 580 nM in assay [1], 18 nM in assay [2] and 30 nM on Prothrombin.
`CCOc1ccc(-c2cccc(S(=O)(=O)N[C@@H](Cc3cccc(C(=N)N)c3)C(=O)N3CCC(CCN)CC3)c2)c(Cl)c1`: the inhibitory constant (Ki) came to 400 nM in assay [1], 13 nM in assay [2], 170 nM on Coagulation factor X and 400 nM at Prothrombin.
In the case of `N=C(N)c1cccc(C[C@H](NS(=O)(=O)c2cccc(-c3cccc(Cl)c3Cl)c2)C(=O)N2CCC(CCN)CC2)c1`, the Ki in assay [1] was 210 nM; in assay [2], 11 nM; on Prothrombin, 20 nM.
Regarding `CCOc1ccc(-c2cccc(S(=O)(=O)N[C@@H](Cc3cccc(C(=N)N)c3)C(=O)N3CCC(CCCC(=O)NC)CC3)c2)c(Cl)c1`, the Ki in assay [1] amounted to 1300 nM; in assay [2] it was 49 nM; at Coagulation factor X, 180 nM; on Prothrombin it was 30 nM.
For `CNC(=O)NCCC1CCN(C(=O)[C@H](Cc2cccc(C(=N)N)c2)NS(=O)(=O)c2cccc(NC(=O)CCN)c2)CC1` the same measures were 1200 nM, 7 nM, 7070 nM and 40 nM.
For `N=C(N)c1cccc(C[C@H](NS(=O)(=O)c2cccc(NC(=O)CCN)c2)C(=O)N2CCC(CCNC(=O)NCc3ccccc3)CC2)c1` the same measures were 1300 nM, 17 nM, 5520 nM and 230 nM.
For `N=C(N)c1cccc(C[C@H](NS(=O)(=O)c2cccc(NC(=O)CCN)c2)C(=O)N2CCC(CCNC(=O)Nc3ccccc3)CC2)c1` the same measures were 1900 nM, 11 nM, 2610 nM and 440 nM.
In the case of `CNC(=O)CCCC1CCN(C(=O)[C@H](Cc2cccc(C(=N)N)c2)NS(=O)(=O)c2cccc(-c3cccc(Cl)c3Cl)c2)CC1`, the inhibition constant (Ki) in assay [1] is 750 nM; in assay [2], 51 nM; at Coagulation factor X, 260 nM; on Prothrombin it was 4 nM.
For `CCNC(=O)NCCC1CCN(C(=O)[C@H](Cc2cccc(C(=N)N)c2)NS(=O)(=O)c2cccc(NC(=O)CCN)c2)CC1` the same measures were 460 nM, 12 nM, 4790 nM and 130 nM.
For `CNC(=O)CCCC1CCN(C(=O)[C@H](Cc2cccc(C(=N)N)c2)NS(=O)(=O)c2cccc(-c3cccc(F)c3)c2)CC1` the same measures were 10000 nM, 130 nM, 3050 nM and 6 nM.
For `CNC(=O)NC1CCN(C(=O)[C@H](Cc2cccc(C(=N)N)c2)NS(=O)(=O)c2cccc(NC(=O)CCN)c2)CC1` the same measures were 1300 nM, 56 nM, 14100 nM and 10800 nM.
For the compound `N=C(N)c1cccc(C[C@H](NS(=O)(=O)c2cccc(-c3ccccc3F)c2)C(=O)N2CCC(CCN)CC2)c1`, the Ki in assay [1] turned out to be 2100 nM; in assay [2], 23 nM; on Coagulation factor X, 810 nM; on Prothrombin, 40 nM.
For `N=C(N)c1cccc(C[C@H](NS(=O)(=O)c2cccc(NC(=O)CCN)c2)C(=O)N2CCC(CCNC(N)=O)CC2)c1` the same measures were 3300 nM, 14 nM, 13900 nM and 140 nM.
In the case of `CNC(=O)CCCC1CCN(C(=O)[C@H](Cc2cccc(C(=N)N)c2)NS(=O)(=O)c2cccc(-c3ccc(Cl)cc3Cl)c2)CC1`, the Ki in assay [1] worked out at 350 nM; in assay [2], 13 nM; on Coagulation factor X, 32 nM; on Prothrombin, 1 nM.
For `CNC(=O)CCCC1CCN(C(=O)[C@H](Cc2cccc(C(=N)N)c2)NS(=O)(=O)c2cccc(-c3ccccc3F)c2)CC1` the same measures were 3000 nM, 120 nM, 1100 nM and 2 nM.
For `N=C(N)c1cccc(C[C@H](NS(=O)(=O)c2cccc(-c3cccc(F)c3)c2)C(=O)N2CCC(CCN)CC2)c1` the same measures were 3200 nM, 52 nM, 3200 nM and 40 nM.
For `N=C(N)c1cccc(C[C@H](NS(=O)(=O)c2cccc(NC(=O)CCN)c2)C(=O)N2CCC(NC(=O)NCc3ccccc3)CC2)c1` the same measures were 1100 nM, 26 nM, 2450 nM and 7840 nM.
As to `CNC(=O)CCCC1CCN(C(=O)[C@H](Cc2cccc(C(=N)N)c2)NS(=O)(=O)c2cccc(-c3ccc(OC)cc3OC)c2)CC1`, the inhibition constant (Ki) in assay [1] is 770 nM; in assay [2], 8 nM; at Coagulation factor X it was 60 nM; at Prothrombin, 1 nM.
